Results taken from patent US20250171423A1, “PHARMACEUTICAL COMPOUNDS FOR THE TREATMENT OF COMPLEMENT MEDIATED DISORDERS” (Achillion Pharmaceuticals, Inc., priority 2020, published 2025).

Target: T1, Human complement C1s enzyme (Homo sapiens, UniProt P09871)
T1 construct: purified from human serum, Complement Technology, Inc; purchased Complement Technology, Inc; host or cells: human serum
T1 sequence (P09871 438-688 limits assumed): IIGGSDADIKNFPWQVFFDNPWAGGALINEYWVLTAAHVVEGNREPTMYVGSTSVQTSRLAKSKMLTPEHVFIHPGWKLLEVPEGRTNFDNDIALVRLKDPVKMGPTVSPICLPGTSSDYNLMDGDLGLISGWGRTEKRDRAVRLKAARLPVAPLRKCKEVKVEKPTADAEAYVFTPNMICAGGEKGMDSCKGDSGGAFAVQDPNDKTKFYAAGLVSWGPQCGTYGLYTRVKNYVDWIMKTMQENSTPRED
T1 sequence (P09871 16-437 partner limits assumed): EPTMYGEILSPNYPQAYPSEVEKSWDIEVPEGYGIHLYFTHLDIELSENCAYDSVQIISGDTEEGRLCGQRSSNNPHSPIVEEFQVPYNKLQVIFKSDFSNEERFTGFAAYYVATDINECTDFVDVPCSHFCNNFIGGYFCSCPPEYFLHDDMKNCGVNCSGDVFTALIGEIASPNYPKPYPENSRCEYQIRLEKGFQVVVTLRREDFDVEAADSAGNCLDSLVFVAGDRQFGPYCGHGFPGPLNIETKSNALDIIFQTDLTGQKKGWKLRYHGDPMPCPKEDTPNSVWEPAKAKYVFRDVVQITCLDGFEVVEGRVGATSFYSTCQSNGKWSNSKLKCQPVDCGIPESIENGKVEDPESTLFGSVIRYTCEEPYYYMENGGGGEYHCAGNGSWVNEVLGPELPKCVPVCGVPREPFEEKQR
Assay: Human C1s Enzyme Assay
Format: biochemical
Conditions: human C1s 1.16 nM, 5 min preincubation, substrate Z-L-Lys-SBzl 100 μM, A405; read-out: C1s Protease Activity
Outline: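 IC50 values were fitted by nonlinear regression to rates measured as A405 every 30 s for 30 min. The thioester substrate Z-L-Lys-SBzl and Ellman's reagent were each at 100 μM. Serum-derived C1s at 1.16 nM final had 5 min of room-temperature preincubation with compound (pH 7.5 Tris buffer, 1 M NaCl).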

Structure (SMILES)	IC50
N=C(N)c1csc(C(NC(=O)[C@@H]2C[C@@H](OC(F)F)CN2C(=O)CNC(=O)c2ccc(Oc3ccccc3)cc2)C(=O)O)c1 (stereo partly drawn) [Compound 190, 2-(4-carbamimidoylthiophen-2-yl)-2-((2S,4R)-4-(difluoromethoxy)-1-((4-phenoxybenzoyl)glycyl)pyrrolidine-2-carboxamido)acetic acid]	< 100 nM
C[C@@H](NC(=O)[C@@H]1C[C@](F)(CF)CN1C(=O)CNC(=O)c1ccc(C(=O)c2ccccc2)cc1)c1cc(C(=N)N)cs1 [Compound 202, (2S,4R)-1-((4-benzoylbenzoyl)glycyl)-N-((R)-1-(4-carbamimidoylthiophen-2-yl)ethyl)-4-fluoro-4-(fluoromethyl)pyrrolidine-2-carboxamide]	< 100 nM
N=C(N)c1csc(CNC(=O)[C@@H]2C[C@H](c3ccccc3)CN2C(=O)CNC(=O)CCCOc2ccccc2)c1 [Compound 157, (2S,4R)-N-((4-carbamimidoylthiophen-2-yl)methyl)-1-((4-phenoxybutanoyl)glycyl)-4-phenylpyrrolidine-2-carboxamide]	< 100 nM
N=C(N)c1csc(CNC(=O)[C@@H]2C[C@H](C3CCCCC3)CN2C(=O)CNC(=O)c2ccc(Oc3ccccc3)cc2)c1 [Compound 73, (2S,4R)-N-((4-carbamimidoylthiophen-2-yl)methyl)-4-cyclohexyl-1-((4-phenoxy-benzoyl)glycyl)pyrrolidine-2-carboxamide]	< 100 nM
N=C(N)c1csc([C@H](NC(=O)[C@@H]2CC3(CN2C(=O)CNC(=O)CCCOc2ccccc2)OCCO3)C2CCCC2)c1 [Compound 174, (S)-N-((R)-(4-carbamimidoylthiophen-2-yl)(cyclopentyl)methyl)-7-((4-phenoxybutanoyl)glycyl)-1,4-dioxa-7-azaspiro[4.4]nonane-8-carboxamide]	> 1000 nM
COC[C@@]1(F)C[C@@H](C(=O)N[C@H](C)c2cc(C(=N)N)cs2)N(C(=O)CNC(=O)c2ccc(C(=O)c3ccccc3)cc2)C1 [Compound 218, (2S,4R)-1-((4-benzoylbenzoyl)glycyl)-N-((R)-1-(4-carbamimidoylthiophen-2-yl)ethyl)-4-fluoro-4-(methoxymethyl)pyrrolidine-2-carboxamide]	< 100 nM
C[C@@]12C[C@@H]1N(C(=O)CN1Cc3cc(Oc4ccccc4)ccc3C1=O)[C@H](C(=O)NCc1cc(C(=N)N)cs1)C2 [Compound 101, (1S,3S,5S)-N-((4-carbamimidoylthiophen-2-yl)methyl)-5-methyl-2-(2-(1-oxo-5-phenoxyisoindolin-2-yl)acetyl)-2-azabicyclo[3.1.0]hexane-3-carboxamide]	< 100 nM
N=C(N)c1csc(CNC(=O)[C@@H]2C[C@@H](c3ccc(F)cc3)CN2C(=O)CNC(=O)CCCOc2ccccc2)c1 [Compound 164, (2S,4S)-N-((4-carbamimidoylthiophen-2-yl)methyl)-4-(4-fluorophenyl)-1-((4-phenoxybutanoyl)glycyl)pyrrolidine-2-carboxamide]	< 100 nM
C[C@@]12C[C@@H]1N(C(=O)CNC(=O)c1ccc(Oc3ccccc3)nc1)[C@H](C(=O)NCc1cc(C(=N)N)cs1)C2 [Compound 143, (1S,3S,5S)-N-((4-carbamimidoylthiophen-2-yl)methyl)-5-methyl-2-((6-phenoxynicotinoyl)glycyl)-2-azabicyclo[3.1.0]hexane-3-carboxamide]	< 100 nM
N=C(N)c1csc(CNC(=O)[C@@H]2C[C@@H](Cc3ccc(C(F)(F)F)cc3)CN2C(=O)CNC(=O)c2ccc(Oc3ccccc3)cc2)c1 [Compound 17, (2S,4R)-N-((4-carbamimidoylthiophen-2-yl)methyl)-1-((4-phenoxybenzoyl)glycyl)-4-(4-(trifluoromethyl)benzyl)pyrrolidine-2-carboxamide]	< 100 nM
N=C(N)c1csc(CNC(=O)C2CC3(CCC3)CN2C(=O)CNC(=O)CCCOc2ccccc2)c1 (centres unmarked) [Compound 261, N-((4-carbamimidoylthiophen-2-yl)methyl)-6-((4-phenoxybutanoyl)glycyl)-6-azaspiro[3.4]octane-7-carboxamide]	< 100 nM
CS(=O)(=O)[C@@H]1C[C@@H](C(=O)NCc2cc(C(=N)N)cs2)N(C(=O)CNC(=O)c2ccc(Oc3ccccc3)cc2)C1 [Compound 46, (2S,4R)-N-((4-carbamimidoylthiophen-2-yl)methyl)-4-(methylsulfonyl)-1-((4-phenoxybenzoyl)glycyl)pyrrolidine-2-carboxamide]	< 100 nM
Cc1ccccc1[C@H]1C[C@@H](C(=O)NCc2cc(C(=N)N)cs2)N(C(=O)CNC(=O)CCCOc2ccccc2)C1 [Compound 150]	< 100 nM
C[C@@H](NC(=O)[C@@H]1C[C@H](C2CCCCC2)CN1C(=O)CNC(=O)c1ccc(Oc2ccccc2)cc1)c1cc(C(=N)N)cs1 [Compound 241, (2S,4R)-N-((R)-1-(4-carbamimidoylthiophen-2-yl)ethyl)-4-cyclohexyl-1-((4-phenoxybenzoyl)glycyl)pyrrolidine-2-carboxamide]	< 100 nM
CC(C)C[C@@H](NC(=O)[C@@H]1C[C@@H](OC(F)F)CN1C(=O)CNC(=O)c1ccc(Oc2ccccc2)cc1)c1cc(C(=N)N)cs1 [Compound 191, (2S,4R)-N-((R)-1-(4-carbamimidoylthiophen-2-yl)-3-methylbutyl)-4-(difluoromethoxy)-1-((4-phenoxybenzoyl)glycyl)pyrrolidine-2-carboxamide]	> 1000 nM
N=C(N)c1csc([C@@H](Cc2ccccc2)NC(=O)[C@@H]2CC3(CN2C(=O)CNC(=O)CCCOc2ccccc2)OCCO3)c1 [Compound 176, (S)-N-((R)-1-(4-carbamimidoylthiophen-2-yl)-2-phenylethyl)-7-((4-phenoxybutanoyl)glycyl)-1,4-dioxa-7-azaspiro[4.4]nonane-8-carboxamide]	> 1000 nM
CO/C(=N/C#N)c1csc(CNC(=O)[C@@H]2C[C@]3(C)C[C@@H]3N2C(=O)CNC(=O)c2ccc(Oc3ccccc3)cc2)c1 [Compound 31, methyl (E)-N-cyano-5-(((1S,3S,5S)-5-methyl-2-((4-phenoxybenzoyl)glycyl)-2-azabicyclo[3.1.0]hexane-3-carboxamido)methyl)thiophene-3-carbimidate]	> 1000 nM
CCCCCCOC(=O)/N=C(\N)c1csc(CNC(=O)[C@@H]2C[C@]3(C)C[C@@H]3N2C(=O)CNC(=O)c2ccc(Oc3ccccc3)cc2)c1 [Compound 12, hexyl ((Z)-amino(5-(((1S,3S,5S)-5-methyl-2-((4-phenoxybenzoyl)glycyl)-2-azabicyclo-[3.1.0]hexane-3-carboxamido)methyl)thiophen-3-yl)methylene)carbamate]	> 1000 nM
C[C@@]12C[C@@H]1N(C(=O)CNC(=O)c1ccccc1Oc1ccccc1)[C@H](C(=O)NCc1cc(C(=N)N)cs1)C2 [Compound 145, (1S,3S,5S)-N-((4-carbamimidoylthiophen-2-yl)methyl)-5-methyl-2-((2-phenoxybenzoyl)glycyl)-2-azabicyclo[3.1.0]hexane-3-carboxamide]	< 100 nM
Cc1sc(CNC(=O)[C@@H]2C[C@]3(C)C[C@@H]3N2C(=O)CNC(=O)c2ccc(Oc3ccccc3)cc2)cc1C(=N)N [Compound 204, (1S,3S,5S)-N-((4-carbamimidoyl-5-methylthiophen-2-yl)methyl)-5-methyl-2-((4-phenoxybenzoyl)glycyl)-2-azabicyclo[3.1.0]hexane-3-carboxamide]	> 1000 nM
